The numbers were not newly measured in patent publication US20230181675A1, “NOVEL FORMUATIONS” (ARECOR LIMITED, priority 2020, published 2023), which cites them from elsewhere.

SMILES strings stand for the structures.

For the series the following is noted: at 25° C.

Regarding `O=C(O)CC(O)(CC(=O)O)C(=O)O` [Citrate], the “logK metal binding stability constant with respect to zinc ion binding” value (“logK metal binding stability constant” below) is 4.93.
With `O=C(O)CN(CCN(CC(=O)O)CC(=O)O)CC(=O)O` [EDTA, ethylenediaminetetraacetate], the “logK metal binding stability constant” value is on record as 14.5.
For `O=C(O)CN(CCOCCOCCN(CC(=O)O)CC(=O)O)CC(=O)O` [EGTA, ethyleneglycoltetraacetate], the “logK metal binding stability constant” value is recorded as 12.6.
